# Read-outs that look alike come from different tables or passages of the source. Where a SMILES comes first, the peptide text is derived from it. [ ]: non-standard residue; d: D form.
# Key:
# A. baumannii ATCC19606 = test system: A. baumannii ATCC19606
# Summary of the method: (§1)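 MTT added (20–30 min, room temperature); MIC read by eye as lowest concentration inhibiting visible growth (yellow). Polymyxin B positive control from 16 μg/mL.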
# E. cloacae = test system: E. cloacae
# Summary of the method: (§2)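 MICs were determined by broth microdilution in MH medium, with approximately 5 × 10^5 CFU added per well and plates held at 37 °C for about 18 h without shaking.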
# E. coli W3110 = test system: E. coli W3110
# Summary of the method: as §2
# K. pneumoniae NCTC418 = test system: K. pneumoniae NCTC418
# Summary of the method: as §1
# K. pneumoniae OXA-48 = test system: K. pneumoniae OXA-48
# Summary of the method: as §2
# P. aeruginosa PAO1 = test system: P. aeruginosa PAO1
# Summary of the method: as §2
# PA14 2P4 (pmrB) = test system: PA14 2P4 (pmrB)
# Summary of the method: as §2
# PA14 4.13 (phoQ) = test system: PA14 4.13 (phoQ)
# Summary of the method: as §2
# PA14 4.18 (pmrB) = test system: PA14 4.18 (pmrB)
# Summary of the method: as §2
# S. aureus COL (MRSA) = test system: S. aureus COL (MRSA)
# Summary of the method: as §2
# [1] = test system: ZEM-1A (clinical MDR P. aeruginosa isolate)
# Summary of the method: as §2
# [2] = test system: ZEM9A (clinical MDR P. aeruginosa isolate)
# Summary of the method: as §2
# [3] = Circular dichroism, α-helical content; assay type: physicochemical; conditions: 0.1 mg/mL; for CD %α with 5 mM DPC: 10 mM phosphate buffer pH 7.4, 5 mM DPC; for CD %α with 20% TFE: 10 mM phosphate buffer pH 7.4, 20% TFE
# HEK293 cells = test: Cell viability assay by Alamar blue; conditions: read-out: Toxicity on HEK293 cells; CSV
# Summary of the method: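 Cells kept at 37 °C in 5% CO2 with 10% FBS plus penicillin/streptomycin, in RPMI-1640 for A549 and high-glucose DMEM for HEK293, then assessed for viability by Alamar blue; values are mean ± SD of three.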
# [4] = diluted MH ([…] MH, pH 8.5) per Table 1 footnote b, 16–20 h at 37 °C
# [5] = full MH, pH 7.4, 16–20 h at 37 °C
structure (smiles),measurement,setting,value
"CC(C)C[C@H](NC(=O)[C@H](CC(C)C)NC(=O)[C@H](CC(C)C)NC(=O)[C@@H](CCCCN)NC(=O)[C@H](CC(C)C)NC(=O)[C@H](CC(C)C)NC(=O)[C@@H](CCCCN)NC(=O)[C@H](CC(C)C)NC(=O)[C@H](CC(C)C)NC(=O)[C@@H](CCCCN)NC(=O)[C@H](N)CCCCN)C(N)=O [ln69, kkLLkLLkLLL, reference compound] (H-[dK][dK]LL[dK]LL[dK]LLL-NH2)","MIC A. baumannii ATCC19606, […] MH at pH 7.4","A. baumannii ATCC19606; CSV, […] MH at pH 7.4",2 ug/mL
same,"MIC A. baumannii ATCC19606, […] MH at pH 8.5","A. baumannii ATCC19606; CSV, […] MH at pH 8.5",2 ug/mL
same,"MIC A. baumannii ATCC19606, full MH at pH 7.4","A. baumannii ATCC19606; CSV, full MH at pH 7.4",3 ug/mL
same,"MIC A. baumannii ATCC19606, full MH at pH 8.5","A. baumannii ATCC19606; CSV, full MH at pH 8.5",12 ug/mL
same,MIC A. baumannii ATCC19606 […] 7.4,"A. baumannii ATCC19606; Table S2, […] MH, pH 7.4",2 µg/mL
same,MIC A. baumannii ATCC19606 […] 8.5,"A. baumannii ATCC19606; Table S2, […] MH, pH 8.5",2 µg/mL
same,MIC A. baumannii ATCC19606 Full MH 7.4,"A. baumannii ATCC19606; Table S2, full MH, pH 7.4",2 to 4 µg/mL
same,MIC A. baumannii ATCC19606 Full MH 8.5,"A. baumannii ATCC19606; Table S2, full MH, pH 8.5",8 to 16 µg/mL
same,MIC A. baumannii ATCC19606 […],A. baumannii ATCC19606; [4],2 µg/mL
same,MIC A. baumannii ATCC19606 Full,A. baumannii ATCC19606; [5],2 to 4 µg/mL
same,"MIC E. cloacae, […] MH at pH 8.5","E. cloacae; CSV, […] MH at pH 8.5",2 ug/mL
same,"MIC E. cloacae, full MH at pH 7.4","E. cloacae; CSV, full MH at pH 7.4",4 ug/mL
same,MIC E. cloacae,"E. cloacae; MH pH 7.4, 16–20 h at 37 °C",4 µg/mL
same,MIC E. cloacae,"E. cloacae; Table S3, […] MH at pH 8.5",2 µg/mL
same,"MIC E. coli W3110, […] MH at pH 7.4","E. coli W3110; CSV, […] MH at pH 7.4",2 ug/mL
same,"MIC E. coli W3110, […] MH at pH 8.5","E. coli W3110; CSV, […] MH at pH 8.5",2 ug/mL
same,"MIC E. coli W3110, full MH at pH 7.4","E. coli W3110; CSV, full MH at pH 7.4",4 ug/mL
same,MIC E. coli W3110 […] 7.4,"E. coli W3110; Table S2, […] MH, pH 7.4",2 µg/mL
same,MIC E. coli W3110 […] 8.5,"E. coli W3110; Table S2, […] MH, pH 8.5",2 µg/mL
same,MIC E. coli W3110 Full MH 7.4,"E. coli W3110; Table S2, full MH, pH 7.4",4 µg/mL
same,MIC E. coli W3110 Full MH 8.5,"E. coli W3110; Table S2, full MH, pH 8.5",16 µg/mL
same,"MIC K. pneumoniae NCTC418, […] MH at pH 7.4","K. pneumoniae NCTC418; CSV, […] MH at pH 7.4",4 ug/mL
same,"MIC K. pneumoniae NCTC418, […] MH at pH 8.5","K. pneumoniae NCTC418; CSV, […] MH at pH 8.5",2 ug/mL
same,"MIC K. pneumoniae NCTC418, full MH at pH 7.4","K. pneumoniae NCTC418; CSV, full MH at pH 7.4",8 ug/mL
same,"MIC K. pneumoniae NCTC418, full MH at pH 8.5","K. pneumoniae NCTC418; CSV, full MH at pH 8.5",16 ug/mL
same,MIC K. pneumoniae NCTC418 […] 7.4,"K. pneumoniae NCTC418; Table S2, […] MH, pH 7.4",4 µg/mL
same,MIC K. pneumoniae NCTC418 […] 8.5,"K. pneumoniae NCTC418; Table S2, […] MH, pH 8.5",2 µg/mL
same,MIC K. pneumoniae NCTC418 Full MH 7.4,"K. pneumoniae NCTC418; Table S2, full MH, pH 7.4",8 µg/mL
same,MIC K. pneumoniae NCTC418 Full MH 8.5,"K. pneumoniae NCTC418; Table S2, full MH, pH 8.5",16 µg/mL
same,MIC K. pneumoniae NCTC418 […],K. pneumoniae NCTC418; [4],4 µg/mL
same,MIC K. pneumoniae NCTC418 Full,K. pneumoniae NCTC418; [5],8 µg/mL
same,"MIC K. pneumoniae OXA-48, […] MH at pH 8.5","K. pneumoniae OXA-48; CSV, […] MH at pH 8.5",2 ug/mL
same,"MIC K. pneumoniae OXA-48, full MH at pH 7.4","K. pneumoniae OXA-48; CSV, full MH at pH 7.4",4 ug/mL
same,MIC K. pneumoniae OXA-48,"K. pneumoniae OXA-48; MH pH 7.4, 16–20 h at 37 °C",4 µg/mL
same,MIC K. pneumoniae OXA-48,"K. pneumoniae OXA-48; Table S3, […] MH at pH 8.5",2 µg/mL
same,"MIC P. aeruginosa PAO1, […] MH at pH 7.4","P. aeruginosa PAO1; CSV, […] MH at pH 7.4",4 ug/mL
same,"MIC P. aeruginosa PAO1, […] MH at pH 8.5","P. aeruginosa PAO1; CSV, […] MH at pH 8.5",2 ug/mL
same,"MIC P. aeruginosa PAO1, full MH at pH 7.4","P. aeruginosa PAO1; CSV, full MH at pH 7.4",8 ug/mL
same,"MIC P. aeruginosa PAO1, full MH at pH 8.5","P. aeruginosa PAO1; CSV, full MH at pH 8.5",8 ug/mL
same,MIC P. aeruginosa PAO1 […] 7.4,"P. aeruginosa PAO1; Table S2, […] MH, pH 7.4",4 µg/mL
same,MIC P. aeruginosa PAO1 […] 8.5,"P. aeruginosa PAO1; Table S2, […] MH, pH 8.5",2 µg/mL
same,MIC P. aeruginosa PAO1 Full MH 7.4,"P. aeruginosa PAO1; Table S2, full MH, pH 7.4",8 µg/mL
same,MIC P. aeruginosa PAO1 Full MH 8.5,"P. aeruginosa PAO1; Table S2, full MH, pH 8.5",8 µg/mL
same,MIC P. aeruginosa PAO1 […],P. aeruginosa PAO1; [4],4 µg/mL
same,MIC P. aeruginosa PAO1 Full,P. aeruginosa PAO1; [5],8 µg/mL
same,"MIC P. aeruginosa PA14 2P4, […] MH at pH 8.5","PA14 2P4 (pmrB); CSV, […] MH at pH 8.5",4 ug/mL
same,"MIC P. aeruginosa PA14 2P4, full MH at pH 7.4","PA14 2P4 (pmrB); CSV, full MH at pH 7.4",32 ug/mL
same,MIC PA14 2P4 (pmrB),"PA14 2P4 (pmrB); MH pH 7.4, 16–20 h at 37 °C",32 µg/mL
same,MIC P. aeruginosa PA14 2P4,"PA14 2P4 (pmrB); Table S3, […] MH at pH 8.5",4 µg/mL
same,"MIC P. aeruginosa PA14 4.13, […] MH at pH 8.5","PA14 4.13 (phoQ); CSV, […] MH at pH 8.5",3 ug/mL
same,"MIC P. aeruginosa PA14 4.13, full MH at pH 7.4","PA14 4.13 (phoQ); CSV, full MH at pH 7.4",4 ug/mL
same,MIC PA14 4.13 (phoQ),"PA14 4.13 (phoQ); MH pH 7.4, 16–20 h at 37 °C",4 µg/mL
same,MIC P. aeruginosa PA14 4.13,"PA14 4.13 (phoQ); Table S3, […] MH at pH 8.5",2 to 4 µg/mL
same,"MIC P. aeruginosa PA14 4.18, […] MH at pH 8.5","PA14 4.18 (pmrB); CSV, […] MH at pH 8.5",4 ug/mL
same,"MIC P. aeruginosa PA14 4.18, full MH at pH 7.4","PA14 4.18 (pmrB); CSV, full MH at pH 7.4",16 ug/mL
same,MIC PA14 4.18 (pmrB),"PA14 4.18 (pmrB); MH pH 7.4, 16–20 h at 37 °C",16 µg/mL
same,MIC P. aeruginosa PA14 4.18,"PA14 4.18 (pmrB); Table S3, […] MH at pH 8.5",4 µg/mL
same,"MIC S. aureus COL (MRSA), […] MH at pH 7.4","S. aureus COL (MRSA); CSV, […] MH at pH 7.4",2 ug/mL
same,"MIC S. aureus COL (MRSA), […] MH at pH 8.5","S. aureus COL (MRSA); CSV, […] MH at pH 8.5",2 ug/mL
same,"MIC S. aureus COL (MRSA), full MH at pH 7.4","S. aureus COL (MRSA); CSV, full MH at pH 7.4",16 ug/mL
same,"MIC S. aureus COL (MRSA), full MH at pH 8.5","S. aureus COL (MRSA); CSV, full MH at pH 8.5",16 ug/mL
same,MIC S. aureus COL (MRSA) […] 7.4,"S. aureus COL (MRSA); Table S2, […] MH, pH 7.4",2 µg/mL
same,MIC S. aureus COL (MRSA) […] 8.5,"S. aureus COL (MRSA); Table S2, […] MH, pH 8.5",2 µg/mL
same,MIC S. aureus COL (MRSA) Full MH 7.4,"S. aureus COL (MRSA); Table S2, full MH, pH 7.4",16 µg/mL
same,MIC S. aureus COL (MRSA) Full MH 8.5,"S. aureus COL (MRSA); Table S2, full MH, pH 8.5",16 µg/mL
same,MIC S. aureus COL (MRSA) […],S. aureus COL (MRSA); [4],2 µg/mL
same,MIC S. aureus COL (MRSA) Full,S. aureus COL (MRSA); [5],16 µg/mL
same,"MIC P. aeruginosa ZEM-1A, […] MH at pH 8.5","[1]; CSV, […] MH at pH 8.5",2 ug/mL
same,"MIC P. aeruginosa ZEM-1A, full MH at pH 7.4","[1]; CSV, full MH at pH 7.4",2 ug/mL
same,MIC P. aeruginosa ZEM-1A,"[1]; Table S3, […] MH at pH 8.5",2 µg/mL
same,"MIC P. aeruginosa ZEM9A, […] MH at pH 8.5","[2]; CSV, […] MH at pH 8.5",2 ug/mL
same,"MIC P. aeruginosa ZEM9A, full MH at pH 7.4","[2]; CSV, full MH at pH 7.4",6 ug/mL
same,MIC ZEM9A,"[2]; MH pH 7.4, 16–20 h at 37 °C",4 to 8 µg/mL
same,MIC P. aeruginosa ZEM9A,"[2]; Table S3, […] MH at pH 8.5",2 µg/mL
same,CD %α with 5 mM DPC,"[3]; DichroWeb, Contin-LL",61%
same,CD %α with 20% TFE,"[3]; DichroWeb, Contin-LL",34%
same,CD %α with 5 mM DPC,[3]; Table S2,61%
same,CD %α with 20% TFE,[3]; Table S2,34%
same,IC50,HEK293 cells,45 ± 9 µM

# Reference: publication PMC10714400, “Antimicrobial Peptide–Peptoid Hybrids with and without Membrane Disruption” (ACS Infectious Diseases, 2023)
